# Results from patent US20170334877A1, “REVAPRAZAN HYDROCHLORIDE POLYMORPHS AND PREPARATION METHOD THEREFOR” (JIANGSU TASLY DIYI PHARMACEUTICAL CO., LTD., priority 2014, published 2017).
# Structures can show the parent of a compound that is named as a salt.
# Tests used:
# [1] = general statement in background art; cited from earlier work
# [2] = Light illumination test (intense light, 4500±500 Lx); assay type: physicochemical; settings: for Appearance color / Loss on drying (%) / Purity (%) / Relevant substances: light 4500±500 Lx; for Loss on drying (%) / Purity (%) / Relevant substances: hydrochloride
# Source text: Revaprazan hydrochloride crystalline form I is irradiated under such a condition that the light intensity is 4500±500 Lx, and is sampled on the 5th day and 10th day for detection, and the results are shown in Table 1. Revaprazan hydrochloride crystalline form II is irradiated under the condition that the light intensity is 4500±500Lx, and is sampled on the 5th day and 10th day for detection. Revaprazan hydrochloride polymorph III is irradiated under such a condition that the light intensity is 4500±500Lx, and is sampled on the 5th day and 10th day for detection. Revaprazan hydrochloride […] is irradiated under such a condition that the light intensity is 4500±500Lx, and is sampled on the 5th day and the 10th day for detection. Revaprazan hydrochloride crystalline form V is irradiated under the light intensity condition of 4500±500Lx; and is sampled on the 5th day and 10th day for detection.
# [3] = High humidity test (25° C., relative humidity 75±5%); assay type: physicochemical; settings: for Appearance color / Purity (%) / Relevant substances / Weight gain upon moisture absorption (%): 25° C., RH 75±5%
# Experimental: Revaprazan hydrochloride crystalline form I is placed in an incubator of 25° C. (relative humidity of 75±5%), and is sampled on the 5th day and 10th day for detection. Revaprazan hydrochloride crystalline form II is placed in an incubator of 25° C. (relative humidity of 75±5%), and is sampled on the 5th day and 10th day for detection. Revaprazan hydrochloride polymorph III is placed in an incubator of 25° C. (relative humidity of 75±5%), and is sampled on the 5th day and the 10th day for detection. Revaprazan hydrochloride crystalline form IV is placed in an incubator of 25° C. Revaprazan hydrochloride crystal form 4 is placed in an incubator of 25° C. (the relative humidity is 75±5%), and is sampled on the 5th day and the 10th day for detection.
# [4] = High temperature test (60° C. incubator); assay type: physicochemical; settings: for Appearance color / Loss on drying (%) / Purity (%) / Relevant substances: 60° C., hydrochloride
# Experimental: Revaprazan hydrochloride crystalline form I is placed in a 60° C. incubator, and is sampled on the 5th day and 10th day for detection, and the results are shown in Table 2. Revaprazan hydrochloride crystalline form II is placed in a 60° C. incubator, and is sampled on the 5th day and 10th day for detection, and the results are shown in Table 6. Revaprazan hydrochloride polymorph III is placed in an incubator of 60° C., and is sampled on the 5th day and the 10th day for detection. Revaprazan hydrochloride crystalline form IV is placed in an incubator of 60° C., and is sampled on the 5th day and the 10th day for detection. Revaprazan hydrochloride crystal form 4 is placed in an incubator of 60° C.; and is sampled on the 5th day and the 10th day for detection, and the results are shown in Table 23.
# [5] = Accelerated test (40±2° C., relative humidity 75±5%, 6 months, sealed polyethylene film bag); assay type: physicochemical; settings: for Appearance color / Purity (%) / Relevant substances: 40±2° C., RH 75±5%; for Purity (%) / Relevant substances: hydrochloride
# Experimental: Revaprazan hydrochloride crystalline form I is sealed in a polyethylene film bag, is placed for 6 months under the conditions that the temperature is 40±2° C. and the relative humidity is 75±5%, and is respectively sampled at the end of the 1st Month, the 2nd Month, the 3rd Month and the 6^thMonth for detection; and the results are shown in Table 4. Revaprazan hydrochloride crystalline form II is sealed in a polyethylene film bag and is placed for 6 months under the conditions that the temperature is 40±2° C. and the relative humidity is 75±5%, and is respectively sampled at the end of the 1st Month, the 2nd Month, the 3rd Month and the 6th Month for detection; and the results are shown in Table 8. Revaprazan hydrochloride crystalline form III is sealed in a polyethylene film bag, is placed for 6 months under the conditions that the temperature is 40±2° C. and the relative humidity is 75±5%, and is sampled at the end of the 1st Month, the 2nd Month, the 3rd Month and the 6th Month for detection. Revaprazan hydrochloride crystalline form IV is sealed in a polyethylene film bag, is placed for 6 months under the conditions that the temperature is 40±2° C. and the relative humidity is 75±5%, and is sampled at the end of the 1st Month, the 2nd Month, the 3rd Month and the 6th Month for detection. Revaprazan hydrochloride crystalline form V is sealed in a polyethylene film bag and is placed for 6 months under the condition that the temperature is 40±2° C. and the relative humidity is 75±5%, and is sampled at the end of the 1st month, the 2nd month, the 3rd month and the 6th month for detection, and the results are shown in Table 20.
smiles,measurement,setting,value
Cc1nc(Nc2ccc(F)cc2)nc(N2CCc3ccccc3C2C)c1C (stereo not drawn) [Revaprazan hydrochloride],Time to maximum plasma concentration,[1],about 1 h
"Cc1nc(Nc2ccc(F)cc2)nc(N2CCc3ccccc3C2C)c1C (single isomer, unassigned) [revaprazan hydrochloride crystalline form I]",Stability (conclusion in words),"[2]; intense light illumination, no obvious changes in appearance color, loss on drying, purity, relevant substances",stable
same,Appearance color,[2]; 5th day,White powder
same,Loss on drying (%),[2]; 5th day,0.28%
same,Purity (%),[2]; 5th day,99.92%
same,Relevant substances,[2]; 5th day,Not detected
same,Appearance color,[2]; 10th day,White powder
same,Loss on drying (%),[2]; 10th day,0.30%
same,Purity (%),[2]; 10th day,99.94%
same,Relevant substances,[2]; 10th day,Not detected
same,Appearance color,[2]; Day 0,White powder
same,Loss on drying (%),[2]; Day 0,0.27%
same,Purity (%),[2]; Day 0,99.96%
same,Relevant substances,[2]; Day 0,Not detected
same,Appearance color,[3]; 5th day,White powder
same,Purity (%),"[3]; 5th day, hydrochloride",99.93%
same,Relevant substances,"[3]; 5th day, hydrochloride",Not detected
same,Weight gain upon moisture absorption (%),"[3]; 5th day, hydrochloride",0.42%
same,Appearance color,[3]; 10th day,White powder
same,Purity (%),"[3]; 10th day, hydrochloride",99.95%
same,Relevant substances,"[3]; 10th day, hydrochloride",Not detected
same,Weight gain upon moisture absorption (%),"[3]; 10th day, hydrochloride",0.63%
same,Appearance color,[3]; Day 0,White powder
same,Weight gain upon moisture absorption (%),[3]; Day 0,0%
same,Purity (%),"[3]; Day 0, hydrochloride",99.96%
same,Relevant substances,"[3]; Day 0, hydrochloride",Not detected
same,Weight gain upon moisture absorption (in words),[3]; high humidity condition,slight weight gain
same,Stability (conclusion in words),"[3]; high humidity, no obvious changes in appearance color, purity, relevant substances",stable
same,Appearance color,[4]; 5th day,White powder
same,Loss on drying (%),[4]; 5th day,0.23%
same,Purity (%),[4]; 5th day,99.95%
same,Relevant substances,[4]; 5th day,Not detected
same,Appearance color,[4]; 10th day,White powder
same,Loss on drying (%),[4]; 10th day,0.24%
same,Purity (%),[4]; 10th day,99.98%
same,Relevant substances,[4]; 10th day,Not detected
same,Appearance color,[4]; Day 0,White powder
same,Loss on drying (%),[4]; Day 0,0.21%
same,Purity (%),[4]; Day 0,99.96%
same,Relevant substances,[4]; Day 0,Not detected
same,Stability (conclusion in words),"[4]; high temperature, no obvious changes in appearance color, loss on drying, purity, relevant substances",stable
same,Appearance color,[5]; 1st month,White powder
same,Purity (%),[5]; 1st month,99.97%
same,Relevant substances,[5]; 1st month,Not detected
same,Appearance color,[5]; 2nd month,White powder
same,Purity (%),[5]; 2nd month,99.92%
same,Relevant substances,[5]; 2nd month,Not detected
same,Appearance color,[5]; 3rd month,White powder
same,Purity (%),[5]; 3rd month,99.96%
same,Relevant substances,[5]; 3rd month,Not detected
same,Appearance color,[5]; 6th month,White powder
same,Purity (%),[5]; 6th month,99.95%
same,Relevant substances,[5]; 6th month,Not detected
same,Appearance color,[5]; Month 0,White powder
same,Purity (%),[5]; Month 0,99.96%
same,Relevant substances,[5]; Month 0,Not detected
same,Stability (conclusion in words),"[5]; accelerated test, no obvious changes in appearance color, purity, relevant substances",stable
